Assay results: paper PMC4997316, “A ruthenium polypyridyl intercalator stalls DNA replication forks, radiosensitizes human cancer cells and is enhanced by Chk1 inhibition” (Scientific Reports, 2016)

Key:
[1] = tested on: primary human foreskin fibroblasts (HFF); assay: MTT proliferation assay, HFF; assay type: cell-based; conditions: 24 h proliferation assay
Procedure: (§1) (LC3 = Microtubule-associated protein light chain 3) (Fig. 2b, bottom).
(§2) Cells were seeded in 96 well plates at 20,000 cells/well, allowed to proliferate for 24 h before treatment as described in the main text. 0.5 mg ml^−1 MTT (thiazolyl blue tetrazolium bromide) dissolved in serum-free media was added for 60 minutes and the formazan product eluted using acidified isopropanol. The absorbance at 540 nm was quantified by plate reader (reference wavelength 650 nm). The metabolic activity of the cell population was determined as a percentage of a negative (solvent) control.

HeLa cells = assay: irradiation and clonogenic survival assay; assay type: cell-based, human; conditions: for DEF (dose enhancement factor): LD10 [without complex]/LD10 [with complex]; for Radiosensitivity (AUC): area under the survival curve, DMSO 3.83; for LD10: from regression of survival curves, DMSO 6.7; for radiation enhancement ratio (RER): radiosensitivity [without complex]/radiosensitivity [with complex]
Procedure: Chemotherapeutics are often used in combination with external beam ionising radiation in the treatment of cancers and many drugs that inhibit DNA replication are potent radiosensitizers. To examine the possibility that 1 may function as a radiosensitizer, HeLa cells were pre-treated with 1 for 20 h before irradiation (0–6 Gy ionising irradiation (IR); ^137Cs-γ-rays; dose rate = 0.809 Gy min^−1). After further incubation for 4 h with the complex, the relative impact on cell viability was assessed by clonogenic survival. Complex 2, which achieves its impact on cell proliferation through non-DNA damage-based autophagy, was included in parallel for comparison. […] The formation of γH2AX is an early response to IR-induced DSB generation and may provide an indication of DNA damage levels. […] These findings indicate increased levels of DNA damage at an early time point accompany the enhanced radiation-induced cell killing in HeLa cells radiosensitised by 1.
HeLa cells were pre-treated with DMSO, 1 or 2 for 20 h and irradiated using a ^137Cs γ-irradiator (IBL637, CIS Bio Int.; dose rate = 0.809 Gy min^−1). Solutions were removed 4 h after irradiation; cells detached using Trypsin and re-seeded in 6 well plates at a density of 1000 cells/well (in triplicate). Cells were incubated for 7–10 days after re-seeding to allow colony formation before being fixed with 10% methanol, 10% acetic acid and stained with 0.4% methylene blue. Colonies containing 50 cells or greater were counted using a Gelcount instrument and accompanying software (Oxford Optronix). Plating efficiencies were determined for each treatment condition and normalised to controls to provide the survival fraction. Resultant survival fraction (S.F.) versus radiation dose curves were fitted using a second order polynomial function (R^2 values > 0.99). […]
Table S2. Radiosensitization data for 1 and 2 in HeLa cells.
LD10 (Gy) DEF Radiosensitivity RER
Survival variables LD10 (10 % lethal dose) and radiosensitivity, which is expressed as the area under
the survival curve (AUC), derived from linear regression analyses of survival curves (R 2 values ≥
0.989 for all fits). Dose enhancement factor (DEF) = LD 10 [without complex]/LD10 [with complex].
Radiation enhancement ratio (RER) = radiosensitivity [without complex]/radiosensitivity [with

[2] = tested on: HeLa cervical cancer cells; assay: MTT proliferation assay, HeLa; assay type: cell-based, human; conditions: 24 h proliferation assay
Procedure: as §1, §2

[3] = tested on: replication forks in HeLa cells; assay: DNA fibre assay (replication fork progression); assay type: cell-based, human; conditions: for median IdU tract length: 40 μM added during 30 min IdU pulse, mock 6.10 μm
Procedure: Replication tracks were sequentially pulse-labelled with CldU (red) and IdU (green) and the addition of 1 or 2 during the second (IdU) pulse enabled us to evaluate the immediate effect of each complex on individual replication fork progression in S phase cells (Figs 3a and S12).
DNA fibre assays and immunofluorescent staining were performed as described elsewhere, employing sequential CldU and IdU incubation times of 30 mins each. The second nucleotide (IdU) was incubated in the presence of 1, 2 (40 μM) or a DMSO (0.5%) control. Fibres were visualised with a Leica DMRB microscope with a DFC360FX camera. Lengths of CldU- and IdU-labeled tracts were measured by ImageJ software. Statistical analysis was performed using GraphPad Prism software using unpaired t-test.

MCF7 breast cancer cells = assay: MTT proliferation assay, MCF7; assay type: cell-based, human; conditions: 24 h proliferation assay
Procedure: as §1, §2

[4] = octanol/water partition coefficient (Log P)

SMILES	IC50 [1] [µM]	decrease in cell survival versus 6 Gy γ-rays alone (HeLa cells; 40 μM plus 6 Gy) [fold]	survival fraction (S.F.) with 6 Gy γ-rays (HeLa cells; 40 μM, 20 h before and 4 h after irradiation, 6 Gy alone 21.1 +/− 2%)	survival fraction (S.F.) in the absence of radiation (HeLa cells; 40 μM, 24 h)	DEF (dose enhancement factor) (HeLa cells; 40 μM)	Radiosensitivity (AUC) (HeLa cells; 40 μM)	LD10 (HeLa cells; 40 μM) [Gy]	radiation enhancement ratio (RER) (HeLa cells; 40 μM)	IC50 [2] [µM]	median IdU tract length [3] [μm]	stalled replication forks (red tract only), of total replication forks ([3]; 40 μM during IdU pulse, mock 7.5 +/− 1%)	IC50 (MCF7 breast cancer cells) [µM]	Log P [4]	impact on replication fork progression ([3]; 40 μM during IdU pulse)
[Ru+2].c1ccc(-c2nc3c4cccnc4c4ncccc4c3[nH]2)cc1.c1ccc2nc3c4cccnc4c4ncccc4c3nc2c1.c1ccc2nc3c4cccnc4c4ncccc4c3nc2c1 [Complex 1, [Ru(dppz)2(PIP)]^2+]	> 100	6.8	3.1 +/− 1%	~ 85%	1.49	2.59	4.5	1.48	38	2.18	17 +/− 1%	28	0.403	–
Oc1ccc(-c2nc3c4cccnc4c4ncccc4c3[nH]2)cc1.[Ru+2].c1ccc2nc3c4cccnc4c4ncccc4c3nc2c1.c1ccc2nc3c4cccnc4c4ncccc4c3nc2c1 [Complex 2, [Ru(dppz)2(p-HPIP)]^2+]	> 100	–	–	–	1.14	3.39	5.9	1.13	14	6.24	–	12	0.076	negligible impact on replication fork progression
